# Data reported in publication PMC3989846 (Malaria Journal, 2014).
# Test system: luciferase-expressing P. berghei ANKA sporozoites
# Assay: Real time in vivo imaging (IVIS) of liver-stage luminescence in sporozoite-infected mice
# Parameters: species or system Plasmodium berghei
# Conditions: for Suppression rate (%) IVIS 24 h: 24 h post infection; for Suppression rate (%) IVIS 48 h: 48 h post infection; for Suppression rate (%) IVIS 72 h: 72 h post infection
# Excerpt: Luciferase-expressing P. berghei ANKA sporozoites were obtained from laboratory-reared female An. stephensi mosquitoes from the Department of Mosquito Biology, WRAIR. […] Salivary glands were extracted from malaria-infected mosquitoes and kept on ice in RPMI medium with 1% mouse serum. Sporozoites will be recovered by the method of Ozaki, and quantitated using a haemocytometer. Sporozoites isolated from the same batch of mosquitoes will be inoculated into C57BL/6 albino mice on the same day to control for biological variability in sporozoite preparations. Each C57BL/6 mouse will be inoculated intravenously in the tail vein with approximately 50,000 sporozoites suspended in 0.1 mL volume on day 0. To ensure that inoculated sporozoites are viable following the isolation procedure, they will be stained with a vital dye containing fluorescein diacetate (50 mg/mL in acetone) and ethidium bromide (20 μg/mL in phosphate-buffered saline; Sigma Chemical Co., St. Louis, Mo.) and counted in a haemocytometer.
# […] […] Additionally, blood stage infections were measured by flow cytometry. Positive and negative controls were used for the IVIS calibration in each test.
# Causal prophylactic effects and delay in onset of parasitaemia in animals treated with TQ and PQ (Figure 1) were assessed in these experiments, which included a positive control, 4-methyl-PQ. All dosing was conducted based on the body weight at the time of preparation of the dosing solution. […] Each animal received 0.1 - 0.2 ml of the oral solutions, delivered via an intragastric feeder (18-gauge) to the designated recipient. Stock solutions of test compounds were prepared fresh daily by grinding the needed amount of drug in cold (4°C) 0.5% (w/v) hydroxyethyl cellulose and 0.2% (v/v) Tween-80 (0.5% HECT) and diluting the resulting solution at variable concentrations. C57BL/6 albino mice were challenged intravenously with 50,000 luciferase-expressing P. berghei sporozoites extracted from the salivary glands of heavily infected An. stephensi mosquitoes. […] At day 5–30 after infection, the same mice were analysed for blood stage infection by determination of the course of parasitaemia of tail blood by flow cytometry using an FC500 flow cytometer (Beckman-Coulter Co. CA).
# In vivo imaging studies of bioluminescence activity from luciferase expressing P. berghei infected mice were performed using a Perkin Elmer IVIS Spectrum (Hanover, MD). […] Three minutes post luciferin administration the mice were anesthetized with inhaled isoflurane. The mice were then positioned ventral side up in the IVIS on a 37°C platform. The mice continue to receive isoflurane through nose cone delivery. The camera exposure times utilized were 1 and 5 minutes for the 24, 48, and 72 hour time points with f-stop = 1 and large binning setting. Quantitative analysis of bioluminescence emitted from whole bodies or region of intensity (ROI) were determined by measuring the luminescence signal intensity in photons/second using the ROI settings of the Living Image® 3.0 software. The ROI, which measurements were expressed in total flux of photons, was set to measure the abdominal area at the location of the liver from whole body imaging.
# In the in vivo imaging experiments, causal prophylaxis activity, sporontocidal activity, parasite clearance, causal cure, delays in patency, and time to recrudescence were calculated as described previously. The minimum curative dose (MCD100) in 100% animals was defined as the lowest dose, which cured all animals (>5 animals) in a group at any time during the first 30 days of the follow-up period.
# [1] = 5 mg/kg oral, 3 days (-1, 0, 1)
# [2] = 10 mg/kg oral, 3 days (-1, 0, 1)
# [3] = 15 mg/kg oral, 3 days (-1, 0, 1)
# [4] = 20 mg/kg oral, 3 days (-1, 0, 1)
# [5] = 25 mg/kg oral, 3 days (-1, 0, 1)
# [6] = 25 mg/kg single oral dose on day 0
# [7] = 25 mg/kg single oral dose on day -1
# [8] = 1.25 mg/kg oral, 3 days (-1, 0, 1)
# [9] = 5 mg/kg single oral dose on day 0
# [10] = 5 mg/kg single oral dose on day -1
structure (smiles),measurement,setting,value
"COc1cc(NC(C)CCCN)c2ncccc2c1 (stereo not shown) [Primaquine, primaquine]",Suppression rate (%) IVIS 24 h,[1],82.4%
same,Suppression rate (%) IVIS 48 h,[1],77.5%
same,Suppression rate (%) IVIS 72 h,[1],89.4%
same,Suppression rate (%) IVIS 24 h,[2],100%
same,Suppression rate (%) IVIS 48 h,[2],97.6%
same,Suppression rate (%) IVIS 72 h,[2],100%
same,low level of luminescence,"10 mg/kg x 3 days, 5 of 10 animals, 48 hours",0.66 × 10^5 photons/sec
same,Suppression rate (%) IVIS 24 h,[3],100%
same,Suppression rate (%) IVIS 48 h,[3],100%
same,Suppression rate (%) IVIS 72 h,[3],100%
same,Suppression rate (%) IVIS 24 h,[4],100%
same,Suppression rate (%) IVIS 48 h,[4],100%
same,Suppression rate (%) IVIS 72 h,[4],100%
same,Suppression rate (%) IVIS 24 h,[5],100%
same,Suppression rate (%) IVIS 48 h,[5],100%
same,Suppression rate (%) IVIS 72 h,[5],100%
same,Suppression rate (%) IVIS 24 h,[6],11.2%
same,Suppression rate (%) IVIS 48 h,[6],0%
same,Suppression rate (%) IVIS 72 h,[6],0%
same,Suppression rate (%) IVIS 24 h,[7],45.7%
same,Suppression rate (%) IVIS 48 h,[7],0%
same,Suppression rate (%) IVIS 72 h,[7],0%
same,liver luminescence after 24 hours,single oral dose 25 mg/kg,high levels of luminescence and no suppression of signal
"COc1cc(C)c2c(Oc3cccc(C(F)(F)F)c3)c(OC)cc(NC(C)CCCN)c2n1 (stereo not shown) [Tafenoquine, tafenoquine]",Suppression rate (%) IVIS 24 h,[8],84.7%
same,Suppression rate (%) IVIS 48 h,[8],92.3%
same,Suppression rate (%) IVIS 72 h,[8],98.9%
same,Suppression rate (%) IVIS 48 h,[1],100%
same,Suppression rate (%) IVIS 72 h,[1],100%
same,Suppression rate (%) IVIS 24 h,[9],66.0%
same,Suppression rate (%) IVIS 48 h,[9],91.1%
same,Suppression rate (%) IVIS 72 h,[9],98.5%
same,Suppression rate (%) IVIS 24 h,[10],68.7%
same,Suppression rate (%) IVIS 48 h,[10],98.6%
same,Suppression rate (%) IVIS 72 h,[10],100%
same,Suppression rate (%) IVIS 24 h,[2],100%
same,Suppression rate (%) IVIS 48 h,[2],100%
same,Suppression rate (%) IVIS 72 h,[2],100%
